Results on 27 compounds are retold here after BindingDB's records for patent US9796704 (SYMPHONY EVOLUTION, INC., 2017).

The term IC50 denotes the concentration at which inhibition is half-maximal.

Holding throughout (assay): AlphaScreen Assay
Background: In Alpha technology, singlet oxygen from a donor bead excites a nearby acceptor bead.

The target in one experiment is T1, Ephrin type-B receptor 4 (Homo sapiens, UniProt P54760).
T1 sequence (P54760 whole entry): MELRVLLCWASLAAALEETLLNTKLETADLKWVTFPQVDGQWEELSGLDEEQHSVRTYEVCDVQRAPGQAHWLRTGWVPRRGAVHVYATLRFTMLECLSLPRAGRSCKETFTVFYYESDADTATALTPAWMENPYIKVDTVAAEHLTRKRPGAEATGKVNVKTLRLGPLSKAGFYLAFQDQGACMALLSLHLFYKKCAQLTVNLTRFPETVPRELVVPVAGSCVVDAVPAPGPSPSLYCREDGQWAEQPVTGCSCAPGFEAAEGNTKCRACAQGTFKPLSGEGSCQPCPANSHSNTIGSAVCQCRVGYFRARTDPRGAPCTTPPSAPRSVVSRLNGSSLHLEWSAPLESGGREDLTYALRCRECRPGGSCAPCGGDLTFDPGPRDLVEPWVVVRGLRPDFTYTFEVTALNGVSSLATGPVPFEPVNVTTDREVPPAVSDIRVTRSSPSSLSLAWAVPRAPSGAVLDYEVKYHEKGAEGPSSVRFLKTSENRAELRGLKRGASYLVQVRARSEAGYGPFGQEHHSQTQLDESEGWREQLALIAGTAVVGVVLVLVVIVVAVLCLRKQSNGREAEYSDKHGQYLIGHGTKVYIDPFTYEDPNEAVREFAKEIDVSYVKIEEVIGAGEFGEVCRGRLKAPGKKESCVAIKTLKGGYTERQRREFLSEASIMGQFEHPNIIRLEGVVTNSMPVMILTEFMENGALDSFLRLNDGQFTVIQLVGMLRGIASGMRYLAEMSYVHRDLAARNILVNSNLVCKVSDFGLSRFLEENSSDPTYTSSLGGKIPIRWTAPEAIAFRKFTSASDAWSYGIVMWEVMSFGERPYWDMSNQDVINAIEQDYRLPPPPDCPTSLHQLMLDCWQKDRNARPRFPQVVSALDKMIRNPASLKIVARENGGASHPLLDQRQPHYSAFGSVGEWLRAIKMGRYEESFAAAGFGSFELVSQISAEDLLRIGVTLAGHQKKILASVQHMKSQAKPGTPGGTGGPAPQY

The target of a further experiment is Ephrin type-A receptor 2 (Homo sapiens, UniProt P29317).
Experiment [1] has as its target Receptor tyrosine-protein kinase erbB-2 (Homo sapiens, UniProt P04626).
Protocol: (§1) In AlphaScreen, when the donor and acceptor beads are close in proximity, a series of photochemical events will give rise to a fluorescent signal upon light activation. Here we use biotinylated poly-(Glu, Tyr) 4:1 as the kinase substrate, streptavidin-coated donor beads and anti-phosphortyrosine antibody PY100-coated acceptor beads. […] Compounds, ATP, biotinylated poly-(Glu, Tyr) and kinases are mixed in a volume of 20 μL for 1 hr at ambient temperature using Greiner 384-well white clear bottom medium binding plates. Then 10 uL solution containing 15-30 mg/mL AlphaScreen beads, 75 mM Hepes, pH 7.4, 300 mM NaCl, 120 mM EDTA, 0.3% BSA and 0.03% Tween-20 is added to each well. After 2-16 hr incubation of the beads, plates are read in a Perkin Elmer AlphaQuest reader (available from PerkinElmer Life and Analytical Sciences, Inc., of Boston Mass.).
The target in experiment [2] is Vascular endothelial growth factor receptor 2 (Homo sapiens, UniProt P35968).
Protocol: as §1
Experiment [3] addresses Vascular endothelial growth factor receptor 1 (Homo sapiens, UniProt P17948).
Protocol: as §1

Each structure is given as a SMILES string. Where only a bound is given, the exact number is not on record here.

Chain of Receptor tyrosine-protein kinase erbB-2 (P04626 whole entry): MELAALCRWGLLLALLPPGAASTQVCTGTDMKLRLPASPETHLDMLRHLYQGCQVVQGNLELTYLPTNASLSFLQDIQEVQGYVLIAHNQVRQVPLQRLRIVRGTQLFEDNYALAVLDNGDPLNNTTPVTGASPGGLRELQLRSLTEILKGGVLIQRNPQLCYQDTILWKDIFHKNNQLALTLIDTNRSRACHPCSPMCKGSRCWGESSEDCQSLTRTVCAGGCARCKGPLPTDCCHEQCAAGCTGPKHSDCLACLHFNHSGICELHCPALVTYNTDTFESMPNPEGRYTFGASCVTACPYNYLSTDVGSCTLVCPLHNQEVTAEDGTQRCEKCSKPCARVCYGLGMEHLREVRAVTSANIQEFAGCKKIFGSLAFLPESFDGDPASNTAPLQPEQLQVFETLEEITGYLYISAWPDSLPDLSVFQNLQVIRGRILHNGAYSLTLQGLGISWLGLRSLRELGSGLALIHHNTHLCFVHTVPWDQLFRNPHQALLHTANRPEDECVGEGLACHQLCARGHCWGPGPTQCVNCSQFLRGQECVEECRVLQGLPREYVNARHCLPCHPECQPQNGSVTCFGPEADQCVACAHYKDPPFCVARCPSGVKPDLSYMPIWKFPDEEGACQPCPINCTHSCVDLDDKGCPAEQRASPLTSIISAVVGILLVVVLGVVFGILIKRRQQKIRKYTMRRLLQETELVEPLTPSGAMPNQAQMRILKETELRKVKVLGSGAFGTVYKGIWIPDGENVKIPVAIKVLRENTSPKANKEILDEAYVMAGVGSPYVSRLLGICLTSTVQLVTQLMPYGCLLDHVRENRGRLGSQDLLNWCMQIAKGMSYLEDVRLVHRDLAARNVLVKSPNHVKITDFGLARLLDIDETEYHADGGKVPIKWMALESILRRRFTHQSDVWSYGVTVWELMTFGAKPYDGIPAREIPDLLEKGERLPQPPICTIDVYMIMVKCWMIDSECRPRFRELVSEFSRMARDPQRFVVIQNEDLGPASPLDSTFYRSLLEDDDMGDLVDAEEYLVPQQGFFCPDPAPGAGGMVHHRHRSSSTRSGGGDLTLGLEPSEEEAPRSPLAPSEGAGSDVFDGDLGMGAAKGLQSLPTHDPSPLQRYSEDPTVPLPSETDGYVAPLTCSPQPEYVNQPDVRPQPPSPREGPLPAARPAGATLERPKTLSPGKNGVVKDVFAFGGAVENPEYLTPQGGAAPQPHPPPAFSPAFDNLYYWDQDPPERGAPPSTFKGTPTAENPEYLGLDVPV
Chain of Vascular endothelial growth factor receptor 2 (P35968 whole entry): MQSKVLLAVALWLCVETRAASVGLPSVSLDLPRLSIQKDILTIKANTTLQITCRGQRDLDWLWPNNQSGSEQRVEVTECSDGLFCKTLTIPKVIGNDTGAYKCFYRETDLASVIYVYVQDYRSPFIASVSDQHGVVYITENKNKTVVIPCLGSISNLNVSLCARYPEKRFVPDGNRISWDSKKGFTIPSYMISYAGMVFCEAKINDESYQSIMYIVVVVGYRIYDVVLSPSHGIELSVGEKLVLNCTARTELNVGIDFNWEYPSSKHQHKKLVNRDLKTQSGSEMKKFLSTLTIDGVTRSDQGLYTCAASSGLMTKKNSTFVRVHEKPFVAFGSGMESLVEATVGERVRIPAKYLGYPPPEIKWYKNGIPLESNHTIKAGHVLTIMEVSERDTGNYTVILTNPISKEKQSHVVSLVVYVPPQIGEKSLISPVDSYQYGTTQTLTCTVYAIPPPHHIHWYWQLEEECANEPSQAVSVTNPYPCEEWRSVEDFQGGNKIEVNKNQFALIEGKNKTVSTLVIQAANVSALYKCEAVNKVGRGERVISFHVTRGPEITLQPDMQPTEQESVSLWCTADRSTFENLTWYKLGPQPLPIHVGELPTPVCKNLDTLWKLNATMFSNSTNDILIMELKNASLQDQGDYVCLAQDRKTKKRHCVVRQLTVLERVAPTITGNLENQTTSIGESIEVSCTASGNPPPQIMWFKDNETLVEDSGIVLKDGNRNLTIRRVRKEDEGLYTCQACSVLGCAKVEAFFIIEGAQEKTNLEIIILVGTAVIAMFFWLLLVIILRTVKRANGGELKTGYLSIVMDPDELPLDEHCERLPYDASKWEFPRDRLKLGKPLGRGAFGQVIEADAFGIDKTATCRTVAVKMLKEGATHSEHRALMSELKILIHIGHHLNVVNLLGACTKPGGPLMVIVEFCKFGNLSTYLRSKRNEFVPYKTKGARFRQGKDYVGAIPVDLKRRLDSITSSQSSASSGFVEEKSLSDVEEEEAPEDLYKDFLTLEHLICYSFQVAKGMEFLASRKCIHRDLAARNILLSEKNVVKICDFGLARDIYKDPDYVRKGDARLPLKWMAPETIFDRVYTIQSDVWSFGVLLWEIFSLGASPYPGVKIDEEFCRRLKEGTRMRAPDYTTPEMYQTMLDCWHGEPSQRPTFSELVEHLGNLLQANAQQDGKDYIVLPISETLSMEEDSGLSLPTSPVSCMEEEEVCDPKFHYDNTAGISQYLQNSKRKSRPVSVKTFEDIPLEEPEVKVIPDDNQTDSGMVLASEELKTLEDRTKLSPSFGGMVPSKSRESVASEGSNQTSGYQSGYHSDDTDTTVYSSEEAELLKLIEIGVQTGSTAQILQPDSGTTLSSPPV
Chain of Ephrin type-A receptor 2 (P29317 whole entry): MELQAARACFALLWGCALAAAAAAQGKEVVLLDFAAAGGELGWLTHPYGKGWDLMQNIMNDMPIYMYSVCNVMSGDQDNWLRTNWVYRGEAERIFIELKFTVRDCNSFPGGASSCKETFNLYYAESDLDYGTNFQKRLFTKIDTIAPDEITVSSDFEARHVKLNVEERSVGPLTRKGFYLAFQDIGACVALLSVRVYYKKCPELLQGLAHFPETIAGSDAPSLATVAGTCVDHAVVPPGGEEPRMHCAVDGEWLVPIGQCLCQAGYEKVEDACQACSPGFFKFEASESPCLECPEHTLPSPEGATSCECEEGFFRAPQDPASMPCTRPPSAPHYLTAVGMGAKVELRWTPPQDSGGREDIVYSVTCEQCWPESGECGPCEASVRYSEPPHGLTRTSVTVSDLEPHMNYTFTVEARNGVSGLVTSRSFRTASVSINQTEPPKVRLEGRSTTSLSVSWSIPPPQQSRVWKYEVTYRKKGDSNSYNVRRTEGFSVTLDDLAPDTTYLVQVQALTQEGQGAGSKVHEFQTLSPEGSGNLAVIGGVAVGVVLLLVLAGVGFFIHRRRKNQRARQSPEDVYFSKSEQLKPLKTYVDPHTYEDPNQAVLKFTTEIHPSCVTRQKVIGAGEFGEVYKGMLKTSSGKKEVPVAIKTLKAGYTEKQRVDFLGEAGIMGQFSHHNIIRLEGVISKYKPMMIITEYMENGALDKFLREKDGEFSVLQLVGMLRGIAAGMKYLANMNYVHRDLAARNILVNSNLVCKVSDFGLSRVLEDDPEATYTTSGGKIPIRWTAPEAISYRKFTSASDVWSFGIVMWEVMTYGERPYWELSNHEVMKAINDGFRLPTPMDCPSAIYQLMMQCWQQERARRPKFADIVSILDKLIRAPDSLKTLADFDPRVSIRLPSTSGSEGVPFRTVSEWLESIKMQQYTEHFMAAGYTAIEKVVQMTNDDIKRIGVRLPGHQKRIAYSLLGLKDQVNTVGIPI
Chain of Vascular endothelial growth factor receptor 1 (P17948 whole entry): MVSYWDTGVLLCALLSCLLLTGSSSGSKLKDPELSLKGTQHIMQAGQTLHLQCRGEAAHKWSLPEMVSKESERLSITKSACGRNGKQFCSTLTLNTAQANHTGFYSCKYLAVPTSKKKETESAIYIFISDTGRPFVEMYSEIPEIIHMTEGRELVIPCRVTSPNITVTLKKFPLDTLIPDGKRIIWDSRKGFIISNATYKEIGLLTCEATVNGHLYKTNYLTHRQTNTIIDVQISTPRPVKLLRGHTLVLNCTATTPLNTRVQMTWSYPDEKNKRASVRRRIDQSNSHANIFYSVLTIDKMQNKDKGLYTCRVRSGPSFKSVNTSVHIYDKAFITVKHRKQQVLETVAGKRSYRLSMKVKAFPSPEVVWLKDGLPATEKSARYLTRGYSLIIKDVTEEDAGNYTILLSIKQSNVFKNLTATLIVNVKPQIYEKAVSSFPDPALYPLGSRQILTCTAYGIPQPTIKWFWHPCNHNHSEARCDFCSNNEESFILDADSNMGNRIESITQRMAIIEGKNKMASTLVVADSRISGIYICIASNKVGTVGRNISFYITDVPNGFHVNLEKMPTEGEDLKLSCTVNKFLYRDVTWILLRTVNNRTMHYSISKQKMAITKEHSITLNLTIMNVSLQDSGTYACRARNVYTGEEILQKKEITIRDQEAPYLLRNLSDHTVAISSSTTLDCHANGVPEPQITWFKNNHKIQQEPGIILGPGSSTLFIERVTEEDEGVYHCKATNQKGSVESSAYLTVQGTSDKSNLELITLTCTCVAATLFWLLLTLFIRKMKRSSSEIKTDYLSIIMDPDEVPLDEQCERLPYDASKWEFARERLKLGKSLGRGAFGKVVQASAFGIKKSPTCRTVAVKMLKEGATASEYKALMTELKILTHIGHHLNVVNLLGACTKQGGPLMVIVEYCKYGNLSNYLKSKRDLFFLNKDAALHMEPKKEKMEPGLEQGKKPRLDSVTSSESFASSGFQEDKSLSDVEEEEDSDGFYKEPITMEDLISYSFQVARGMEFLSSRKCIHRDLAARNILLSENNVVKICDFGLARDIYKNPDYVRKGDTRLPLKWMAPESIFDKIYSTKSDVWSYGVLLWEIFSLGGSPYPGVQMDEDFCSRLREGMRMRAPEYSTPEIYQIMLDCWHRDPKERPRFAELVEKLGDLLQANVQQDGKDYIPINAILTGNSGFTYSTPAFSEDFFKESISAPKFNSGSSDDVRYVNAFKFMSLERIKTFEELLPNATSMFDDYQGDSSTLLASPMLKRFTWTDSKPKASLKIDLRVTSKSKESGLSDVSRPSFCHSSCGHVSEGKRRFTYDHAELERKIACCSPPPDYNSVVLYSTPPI
Protocol for Ephrin type-A receptor 2: as §1
Protocol for Ephrin type-B receptor 4: as §1

With `COC(=O)CCN1CCOC(COc2cc3ncnc(Nc4ccc(Cl)c(Cl)c4)c3cc2OC)C1` (stereo unspecified) [US9796704, Entry 276], the IC50 result (against Ephrin type-B receptor 4; against Ephrin type-A receptor 2; in experiment [1]; in experiment [2]) was “in the range around 10500 nM” throughout.
For the compound `COc1cc2c(Nc3ccc(Cl)c(Cl)c3F)ncnc2cc1OC[C@@H]1CN2CCC[C@@H]2C(=O)N1` [US9796704, Entry 52], the IC50 result (in experiment [3]; against Ephrin type-A receptor 2; in experiment [2]) was “in the range around 10500 nM” in each case.
With `C=CCCCCN1CCOC(COc2cc3ncnc(Nc4ccc(Cl)c(Cl)c4)c3cc2OC)C1` (stereo unspecified) [US9796704, Entry 274], the IC50 result (on Ephrin type-B receptor 4; against Ephrin type-A receptor 2; in experiment [1]; in experiment [2]) was “in the range around 10500 nM” each time.
In the case of `COc1cc2c(Nc3ccc(Cl)c(Cl)c3)ncnc2cc1OCC1CC2CCC(C1)N2C` (stereo unspecified) [US9796704, Entry 58], the IC50 result in experiment [3] is “in the range around 10500 nM”.
In the case of `COc1cc2c(Nc3ccc(Cl)c(Cl)c3F)ncnc2cc1OC[C@H]1C[C@@H]2CN(C)C[C@@H]2C1` [US9796704, Entry 9], the IC50 entry (against Ephrin type-B receptor 4; on Ephrin type-A receptor 2; in experiment [1]; in experiment [2]) was “in the range around 525 nM” throughout.
For the compound `COc1cc2c(Nc3ccc(Cl)c(Cl)c3F)ncnc2cc1OC[C@@H]1CN2CCC[C@H]2C(=O)N1` [US9796704, Entry 51], the IC50 entry (in experiment [3]; against Ephrin type-A receptor 2; in experiment [2]) was “in the range around 10500 nM” each time.
Regarding `CCN1CCCC1c1nc(COc2cc3ncnc(Nc4ccc(Cl)c(Cl)c4)c3cc2OC)cs1` (stereo unspecified) [US9796704, Entry 256], the IC50 entry was “in the range around 525 nM” against Ephrin type-B receptor 4, “in the range around 10500 nM” on Ephrin type-A receptor 2, “in the range around 10500 nM” in experiment [1] and “in the range around 10500 nM” in experiment [2].
As to `CCN1CCCC1c1noc(COc2cc3ncnc(Nc4ccc(Cl)c(Cl)c4)c3cc2OC)n1` (stereo unspecified) [US9796704, Entry 255], the IC50 result on Ephrin type-B receptor 4 is “in the range around 525 nM”; against Ephrin type-A receptor 2, “in the range around 10500 nM”; in experiment [1], “in the range around 10500 nM”; in experiment [2], “in the range around 10500 nM”.
For `COc1cc2c(Nc3ccc(F)c(F)c3)ncnc2cc1O[C@@H]1CO[C@@H]2[C@H]1OC[C@H]2F` [US9796704, Entry 111], the IC50 entry (on Ephrin type-B receptor 4; at Ephrin type-A receptor 2; in experiment [1]; in experiment [2]) was “in the range around 525 nM” each time.
For `COc1cc2c(Nc3ccc(Cl)c(Cl)c3F)ncnc2cc1OCC1CCC2CCCCN2C1` (stereo unspecified) [US9796704, Entry 83], the half-inhibitory concentration (IC50) result (at Ephrin type-B receptor 4; against Ephrin type-A receptor 2; in experiment [2]) was “in the range around 525 nM” throughout.
For the compound `COc1cc2c(Nc3ccccc3Cl)ncnc2cc1O[C@@H]1CO[C@@H]2[C@H]1OC[C@H]2F` [US9796704, Entry 112], the IC50 entry (on Ephrin type-B receptor 4; on Ephrin type-A receptor 2; in experiment [2]) was “in the range around 525 nM” each time.
As for `COc1cc2c(Nc3ccc(Cl)cc3)ncnc2cc1O[C@@H]1CO[C@@H]2[C@H]1OC[C@H]2F` [US9796704, Entry 116], the IC50 result (at Ephrin type-B receptor 4; at Ephrin type-A receptor 2; in experiment [2]) was “in the range around 525 nM” in each case.
For `COc1cc2c(Nc3ccc(Cl)c(Cl)c3)ncnc2cc1OCC1=CC2C(C(F)(F)F)=NN(C)C2S1` (stereo unspecified) [US9796704, Entry 176], the half-inhibitory concentration (IC50) entry (on Ephrin type-B receptor 4; at Ephrin type-A receptor 2; in experiment [2]) was “in the range around 525 nM” in each case.
With `COc1cc(Nc2ncnc3cc(O[C@@H]4CO[C@@H]5[C@H]4OC[C@H]5F)c(OC)cc23)c(OC)cc1Cl` [US9796704, Entry 136], the half-inhibitory concentration (IC50) result (against Ephrin type-B receptor 4; against Ephrin type-A receptor 2; in experiment [2]) was “in the range around 525 nM” in each case.
On to `COc1ccc(-c2cc(COc3cc4ncnc(Nc5ccc(Cl)c(Cl)c5)c4cc3OC)on2)cc1` [US9796704, Entry 180], for which the IC50 result (against Ephrin type-B receptor 4; against Ephrin type-A receptor 2; in experiment [2]) was “in the range around 525 nM” in each case.
In the case of `COc1cc2c(Nc3cc(C)cc(C)c3)ncnc2cc1O[C@@H]1CO[C@@H]2[C@H]1OC[C@H]2F` [US9796704, Entry 133], the IC50 result (on Ephrin type-B receptor 4; on Ephrin type-A receptor 2; in experiment [2]) was “in the range around 525 nM” each time.
As for `COc1cc2c(Nc3cccc(Cl)c3F)ncnc2cc1O[C@@H]1CO[C@@H]2[C@H]1OC[C@H]2F` [US9796704, Entry 88], the IC50 entry against Ephrin type-B receptor 4 is “in the range around 525 nM”; on Ephrin type-A receptor 2, “in the range around 525 nM”; in experiment [2] it was “in the range around 10500 nM”.
For `COc1cc2c(Nc3ccc(Cl)c(Cl)c3)ncnc2cc1OCc1nc(-c2ccc(Cl)cc2)no1` [US9796704, Entry 168], the half-inhibitory concentration (IC50) entry (on Ephrin type-B receptor 4; on Ephrin type-A receptor 2; in experiment [2]) was “in the range around 525 nM” throughout.
Take `COc1cc2c(Nc3ccc(Br)c(Cl)c3F)ncnc2cc1OC[C@@H]1CN2CCC[C@H]2CO1` [US9796704, Entry 37]: the IC50 result was “in the range around 525 nM” against Ephrin type-B receptor 4 and under 50 nM in experiment [1].
Consider `COc1cc2c(Nc3ccc(Cl)c(Cl)c3)ncnc2cc1OC[C@H]1CN2CCC[C@H]2CO1` [US9796704, Entry 35], for which the IC50 result (at Ephrin type-B receptor 4; at Ephrin type-A receptor 2; in experiment [1]) was “in the range around 525 nM” throughout.
For the compound `COc1cc2c(Nc3ccc(Cl)c(Cl)c3)ncnc2cc1OCC1CN2CSC[C@H]2CO1` (stereo partly specified) [US9796704, Entry 56], the 50% inhibitory concentration (IC50) result (in experiment [3]; against Ephrin type-A receptor 2; in experiment [2]) was “in the range around 10500 nM” in each case.
Consider `COc1cc2c(Nc3ccccc3Br)ncnc2cc1O[C@@H]1CO[C@@H]2[C@H]1OC[C@H]2F` [US9796704, Entry 128], for which the IC50 result (against Ephrin type-B receptor 4; at Ephrin type-A receptor 2; in experiment [2]) was “in the range around 525 nM” each time.
For the compound `COc1cc2c(Nc3ccc(Br)c(Cl)c3F)ncnc2cc1OC[C@@H]1C[C@@H]2CN(S(C)(=O)=O)C[C@@H]2C1` [US9796704, Entry 6], the IC50 on Ephrin type-B receptor 4 is under 50 nM; against Ephrin type-A receptor 2 it was “in the range around 525 nM”; in experiment [1], “in the range around 525 nM”; in experiment [2], “in the range around 525 nM”.
Consider `COc1cc2c(Nc3cccc(C(F)(F)F)c3F)ncnc2cc1O[C@@H]1CO[C@@H]2[C@H]1OC[C@H]2F` [US9796704, Entry 123], for which the IC50 result (on Ephrin type-B receptor 4; at Ephrin type-A receptor 2; in experiment [2]) was “in the range around 525 nM” throughout.
With `COc1cc2c(Nc3cc(Cl)ccc3F)ncnc2cc1O[C@@H]1CO[C@@H]2[C@H]1OC[C@H]2F` [US9796704, Entry 93], the IC50 entry (against Ephrin type-B receptor 4; against Ephrin type-A receptor 2; in experiment [2]) was “in the range around 525 nM” throughout.
`COc1cc2c(Nc3cc(C(F)(F)F)ccc3Br)ncnc2cc1O[C@@H]1CO[C@@H]2[C@H]1OC[C@H]2F` [US9796704, Entry 124]: the IC50 result (at Ephrin type-B receptor 4; against Ephrin type-A receptor 2; in experiment [2]) was “in the range around 525 nM” in each case.
Turning to `COc1cc2c(Nc3ccc(Cl)c(Cl)c3)ncnc2cc1OC[C@@H]1CN2CCC[C@H]2CO1` [US9796704, Entry 34], the IC50 result was “in the range around 525 nM” against Ephrin type-B receptor 4, “in the range around 525 nM” on Ephrin type-A receptor 2, under 50 nM in experiment [1] and “in the range around 525 nM” in experiment [2].
